Here are results for seven molecules from ChEMBL document CHEMBL4311957, “Recent advances in natural antifungal flavonoids and their derivatives” (Bioorg Med Chem Lett, 2019).

As a reminder, the MIC is the smallest concentration in the dilution series that meets the test's criterion for growth inhibition. The term MFC denotes the smallest concentration meeting the test's criterion for killing the fungus. A higher MFC goes with less potent killing.

Each structure is given as a SMILES string. Values after ≈ are worked out from the molar mass of the structure shown.

Holding throughout (type): functional
Assay [1] concerns Nakaseomyces glabratus. The assay is described as follows: Antifungal activity against FLC-resistant Candida glabrata DSM 11226.
The subject of assay [2] is Kluyveromyces marxianus. The assay is described as follows: Antifungal activity against FLC-resistant Candida pseudotropicalis KKP 324.
Assay [3] deals with Meyerozyma guilliermondii. Description: Antifungal activity against FLC-resistant Candida guilliermondii DSM 11947.
Assay [4] deals with Candida albicans. Description: Fungicidal activity against FLC-resistant Candida stellatoidea CBS 1905.
The subject of assay [5] is Nakaseomyces glabratus. The assay is described as follows: Fungicidal activity against FLC-resistant Candida glabrata DSM 11226.
In assay [6] the test system is Pichia kudriavzevii. The assay is described as follows: Fungicidal activity against FLC-resistant Candida krusei DSM 6128.
For assay [7], the system named is Clavispora lusitaniae. Description: Antifungal activity against FLC-resistant Candida lusitaniae DSM 70102.
In assay [8] the test system is Candida albicans. Description: Antifungal activity against FLC-resistant Candida albicans ATCC 10231.
Assay [9] relates to Clavispora lusitaniae. The assay is described as follows: Fungicidal activity against FLC-resistant Candida lusitaniae DSM 70102.
The subject of assay [10] is Kluyveromyces marxianus. The assay is described as follows: Fungicidal activity against FLC-resistant Candida pseudotropicalis KKP 324.
Assay [11] has as its system Candida albicans. The assay is described as follows: Fungicidal activity against FLC-resistant Candida albicans ATCC 10231.
Assay [12] in a line: Antifungal activity against FLC-resistant Candida arborea KKP 319.
Assay [13] has as its system Candida parapsilosis. Description: Fungicidal activity against FLC-resistant Candida parapsilosis DSM 5784. Particulars: Lodderomyces parapsilosis.
Assay [14] relates to Candida dubliniensis. Description: Antifungal activity against FLC-resistant Candida dubliniensis CBS 7987.
Assay [15] concerns Yarrowia lipolytica. Description: Fungicidal activity against FLC-resistant Candida lipolytica KKP 332.
Assay [16] relates to Yarrowia lipolytica. The assay is described as follows: Antifungal activity against FLC-resistant Candida lipolytica KKP 332.
Assay [17] in a line: Fungicidal activity against FLC-resistant Candida arborea KKP 319.
The subject of assay [18] is Candida parapsilosis. The assay is described as follows: Antifungal activity against FLC-resistant Candida parapsilosis DSM 5784. The following applies: Lodderomyces parapsilosis.
Assay [19] deals with Candida albicans. Description: Antifungal activity against FLC-resistant Candida stellatoidea CBS 1905.
The subject of assay [20] is Meyerozyma guilliermondii. Description: Fungicidal activity against FLC-resistant Candida guilliermondii DSM 11947.
Assay [21] deals with Candida tropicalis. Description: Antifungal activity against FLC-resistant Candida tropicalis KKP 334.
Assay [22] has as its system Candida dubliniensis. The assay is described as follows: Fungicidal activity against FLC-resistant Candida dubliniensis CBS 7987.
For assay [23], the system named is Candida tropicalis. Description: Fungicidal activity against FLC-resistant Candida tropicalis KKP 334.
The test system of assay [24] is Pichia kudriavzevii. Description: Antifungal activity against FLC-resistant Candida krusei DSM 6128.
Assay [25] relates to Aspergillus fumigatus. The assay is described as follows: Antifungal activity against Aspergillus fumigatus after 24 to 48 hrs.
The subject of assay [26] is Nakaseomyces glabratus. Description: Antifungal activity against Candida glabrata 20/I after 24 to 48 hrs.
In assay [27] the test system is Candida albicans. The assay is described as follows: Antifungal activity against Candida albicans ATCC 44859 after 24 to 48 hrs.
Assay [28] deals with Trichophyton mentagrophytes. Description: Antifungal activity against Trichophyton mentagrophytes after 72 to 120 hrs.
Assay [29] has as its system Nakaseomyces glabratus. The assay is described as follows: Antifungal activity against Candida glabrata ATCC 90030 after 24 hrs. Particulars: ATCC 90030, 24 h.
Assay [30] relates to Pichia kudriavzevii. Description: Antifungal activity against Candida krusei E 28 after 24 to 48 hrs.
Assay [31] has as its system Candida tropicalis. Description: Antifungal activity against Candida tropicalis 156 after 24 to 48 hrs.
Assay [32] relates to Pichia kudriavzevii. The assay is described as follows: Antifungal activity against Candida krusei ATCC 6258 after 24 hrs. The following applies: ATCC 6258, 24 h.
The test system of assay [33] is Candida albicans. The assay is described as follows: Antifungal activity against Candida albicans ATCC 24433 after 24 hrs. Particulars: ATCC 24433, 24 h.
For assay [34], the system named is Candida parapsilosis. The assay is described as follows: Antifungal activity against Candida parapsilosis ATCC 22019 after 24 hrs. The following applies: Lodderomyces parapsilosis, ATCC 22019, 24 h.
For assay [35], the system named is Candida albicans. Description: Synergistic antifungal activity against Candida albicans by microbroth dilution method. (In general: Dilution methods test growth across graded concentrations, often in twofold steps.)
Assay [36] has as its system Aspergillus fumigatus. Description: Antifungal activity against Aspergillus fumigatus after 24 hrs by broth dilution method.
The test system of assay [37] is Candida albicans. Description: Antifungal activity against Candida albicans after 24 hrs by broth dilution method.
Assay [38] deals with Candida albicans. The assay is described as follows: Antifungal activity against Candida albicans after 48 hrs by agar disc-diffusion method. Background: A growth-free zone around the sample is the usual read-out of agar diffusion tests.
The subject of assay [39] is Trichophyton mentagrophytes. The assay is described as follows: Fungicidal activity against Trichophyton mentagrophytes after 24 hrs by broth dilution method.
For assay [40], the system named is Aspergillus fumigatus. The assay is described as follows: Fungicidal activity against Aspergillus fumigatus after 24 hrs by broth dilution method.
For assay [41], the system named is Trichophyton mentagrophytes. The assay is described as follows: Antifungal activity against Trichophyton mentagrophytes after 24 hrs by broth dilution method.
The test system of assay [42] is Cryptococcus neoformans. The assay is described as follows: Antifungal activity against Cryptococcus neoformans ATCC 90112 after 48 hrs in presence of AmB by CLSI-based method. Particulars: ATCC 90112, 48 h.
The subject of assay [43] is Cryptococcus neoformans. The assay is described as follows: Antifungal activity against Cryptococcus neoformans ATCC 90112 after 48 hrs by CLSI-based method. Particulars: ATCC 90112, 48 h.

For the molecule `COc1ccc2oc(=O)sc2c1C(=O)/C=C/c1ccc(OCCN(C)C)cc1`, the minimum inhibitory concentration (MIC) was 1 to 16 µg/mL (≈ 2.5 to 40.1 µM) in the assay on Nakaseomyces glabratus [1]; 1 to 16 µg/mL (≈ 2.5 to 40.1 µM) in the assay with Kluyveromyces marxianus [2]; 1 to 16 µg/mL (≈ 2.5 to 40.1 µM) in [3]; 8 to 32 µg/mL (≈ 20 to 80.1 µM) with Candida albicans [4]; 8 to 32 µg/mL (≈ 20 to 80.1 µM) in the assay with Nakaseomyces glabratus [5]; 8 to 32 µg/mL (≈ 20 to 80.1 µM) with Pichia kudriavzevii [6]. Besides, the MIC was 1 to 16 µg/mL (≈ 2.5 to 40.1 µM) against Clavispora lusitaniae [7]; 1 to 16 µg/mL (≈ 2.5 to 40.1 µM) against Candida albicans [8]; 8 to 32 µg/mL (≈ 20 to 80.1 µM) in the assay on Clavispora lusitaniae [9]; 8 to 32 µg/mL (≈ 20 to 80.1 µM) with Kluyveromyces marxianus [10]; 8 to 32 µg/mL (≈ 20 to 80.1 µM) in the assay on Candida albicans [11]; 1 to 16 µg/mL (≈ 2.5 to 40.1 µM) in assay [12]. Moreover, the MIC against Candida parapsilosis [13] lay within 8 to 32 µg/mL (≈ 20 to 80.1 µM); in the assay on Candida dubliniensis [14], 1 to 16 µg/mL (≈ 2.5 to 40.1 µM); against Yarrowia lipolytica [15] it was 8 to 32 µg/mL (≈ 20 to 80.1 µM); against Yarrowia lipolytica [16], 1 to 16 µg/mL (≈ 2.5 to 40.1 µM); in assay [17], 8 to 32 µg/mL (≈ 20 to 80.1 µM); in the assay with Candida parapsilosis [18], 1 to 16 µg/mL (≈ 2.5 to 40.1 µM). The minimum inhibitory concentration (MIC) is 1 to 16 µg/mL (≈ 2.5 to 40.1 µM) in the assay on Candida albicans [19]; 8 to 32 µg/mL (≈ 20 to 80.1 µM) in assay [20]; 1 to 16 µg/mL (≈ 2.5 to 40.1 µM) in the assay on Candida tropicalis [21]; 8 to 32 µg/mL (≈ 20 to 80.1 µM) with Candida dubliniensis [22]; 8 to 32 µg/mL (≈ 20 to 80.1 µM) against Candida tropicalis [23]; 1 to 16 µg/mL (≈ 2.5 to 40.1 µM) in the assay with Pichia kudriavzevii [24].
Turning to `O=C(/C=C/c1ccccc1[N+](=O)[O-])c1cnccn1`, the MIC is 7.81 to 500 µg/mL (≈ 30.6 to 1960 µM) against Aspergillus fumigatus [25]; 7.81 to 41.6 µg/mL (≈ 30.6 to 163 µM) against Nakaseomyces glabratus [26]; 7.81 µg/mL (≈ 30.6 µM) against Candida albicans [27]; 6.51 to 31.2 µg/mL (≈ 25.5 to 122 µM) in assay [28]; 0.78 to 3.12 µg/mL (≈ 3.06 to 12.2 µM) in the assay with Nakaseomyces glabratus [29]; 7.81 to 125 µg/mL (≈ 30.6 to 490 µM) against Pichia kudriavzevii [30]. The MIC was 7.81 to 500 µg/mL (≈ 30.6 to 1960 µM) in the assay with Candida tropicalis [31], 0.78 to 3.12 µg/mL (≈ 3.06 to 12.2 µM) with Pichia kudriavzevii [32], 0.78 to 3.12 µg/mL (≈ 3.06 to 12.2 µM) against Candida albicans [33] and 0.78 to 3.12 µg/mL (≈ 3.06 to 12.2 µM) against Candida parapsilosis [34].
With `C[C@@H]1O[C@@H](Oc2cc(O)c3c(=O)c(O)c(-c4ccc(O)c(O)c4)oc3c2)[C@H](O)[C@H](O)[C@H]1O`, in the assay with Candida albicans [35], the MIC was over 64 µg/mL.
`Cc1cc(O)c(C(=O)/C=C/c2coc3ccccc3c2=O)c(=O)o1` gave an MFC in the assay on Aspergillus fumigatus [36] of 50 µg/mL (≈ 154 µM). Besides, the MIC in the assay on Candida albicans [37] worked out at 12.5 µg/mL (≈ 38.5 µM).
Turning to `O=C(CN1CCCCC1)Nc1ccc(C(=O)/C=C/c2ccc(Cl)cc2)cc1`, in the assay with Candida albicans [38], 2 µg/mL (≈ 5.22 µM) was the least that counted as inhibitory (MIC).
Consider `O=C1NC(=O)C(C(=O)/C=C/c2coc3ccccc3c2=O)C(=O)N1`, for which the MFC (in assay [39]; in the assay on Aspergillus fumigatus [40]) was 50 µg/mL (≈ 153 µM) in each case. Also, the minimum inhibitory concentration (MIC) (in assay [41]; against Candida albicans [37]) was 12.5 µg/mL (≈ 38.3 µM) each time.
As for `COc1cc2oc(-c3ccc(O)c(O)c3)cc(=O)c2c(O)c1O`, the figures for the MIC in the assay on Cryptococcus neoformans [42] and in the assay with Cryptococcus neoformans [43] were 1 µg/mL and 3.9 µg/mL (≈ 12.3 µM), respectively.
